In US20180059115A1, “METHODS FOR MONITORING POLYMORPHONUCLEAR MYELOID DERIVED SUPPRESSOR CELLS, AND COMPOSITIONS AND METHODS OF TREATMENT OF CANCER” (The Wistar Institute of Anatomy and Biology, priority 2016, published 2018):
Entries after “also recorded” stand apart in the source; their conditions may differ.

Legend:
[1] = test system: PMN isolated from healthy donors; test: In vitro PMN LOX-1 induction by ER stress inducers, LOX-1 by flow cytometry; type: cell-based, human; conditions: overnight with GM-CSF, THG 1 μM, DTT 1 mM
Procedure: (§1) PMNs from healthy donors were isolated on a Histopaque gradient. 5×10^5 cells/ml were cultured for 12 hrs with 10 ng/ml of GM-CSF in the presence of dithiothreitol (DTT) (0.5, 1, 2 mM; Sigma), tunicamycin (0.5, 1, and 2 μg/ml; Sigma-Aldrich), or thapsigargin (0.5, 1, and 2 μM; Sigma). In some instances, 20 μM of the XBP-1 inhibitor BIO9 was added 3 hours prior to culture. Cells were then stained for flow cytometry or used for functional assays as described above.
Flow cytometry data were acquired using a BD LSR II flow cytometer and analyzed using FlowJo software (Tree Star) Immunofluorescent microscopy: Following deparaffinization and rehydration, heat induced antigen retrieval was performed using Tris-EDTA buffer pH 9. Followed by blocking with 5% BSA, tissues were stained with Lox1 antibody (Abcam; Cat no ab126538) and CD15 antibody (BD biosciences; Cat no 555400) at 1:200 dilution in 5% BSA each for 1 hour at room temperature. The following secondary antibodies were used Alexa Fluor anti-rabbit A647 (1:200 dilution in 5% BSA, Life technologies) for Lox1 and anti-mouse A514 (1:400 dilution in 5% BSA, Life technologies) for CD15 staining. CD15 staining was pseudo colored red and Lox1 staining was pseudo colored green. Nucleus was stained using DAPI (1:5000 dilution in PBS, Life technologies). Images were obtained using Leica TCS SP5 Confocal microscope. […]

T lymphocytes [2] = test: Three-way allogeneic MLR suppression assay (thymidine incorporation); type: cell-based, human; conditions: 1 μM NAC, 1000 U/ml catalase, 20 μM Nor-NOHA, 1:2 PMN:T cell ratio
Excerpt: Whole blood was enriched for PMNs using MACSxpress® Neutrophil Isolation Kit (Miltenyi) following the protocol provided by the manufacturer. Cells were then labeled with anti-Lox1-PE mAb (Biolegend) and then separated using anti-PE beads and MACS column (Miltenyi). For the three-way allogenic MLR suppression assay, T lymphocytes from one healthy donor were purified using the Human CD3+ T Cell Enrichment Column Kit (R&D Systems) and used as responder cells. Dendritic cells were generated from adherent monocytes from another healthy donor in the presence of 25 ng/mL GM-CSF and 25 ng/mL IL-4 (Peprotech) for 6 days and used as stimulator cells. Responder and stimulator cells were then mixed at a 10:1 ratio followed by the addition of Lox1+ or Lox1− PMNs. T lymphocyte proliferation was assessed after 5 days of culture by thymidine incorporation.
In some experiments, 1 μM N-acetyl cysteine (NAC; Sigma) or 20 μM of Nω-hydroxy-norarginine (nor-NOHA; Cayman Chemical) was added to the culture media to block ROS or agrinase I activity, respectively. T lymphocyte proliferation was assessed after 5 days of culture by thymidine incorporation.

T lymphocytes [3] = test: CD3/CD28 induced T-cell proliferation suppression assay (3H-thymidine uptake); type: cell-based, human; conditions: healthy donor PMN treated overnight with 1 μM THG, washed
Procedure: Concurrently, T-lymphocytes were isolated from the PBMC of the same patient as LOX-1+ PMN using human CD3+ T Cell Enrichment Column Kit. PMNs were plated at different ratios with […] T lymphocytes in a 96-well plate coated with 10 μg/ml anti-CD3 (clone UCHT1; BD Biosciences) followed by the addition of 1 μg/ml of soluble anti-CD28 (clone CD28.2; BD Biosciences). T lymphocyte proliferation was assessed after 3 days of culture by thymidine incorporation.
as §1

[4] = test system: PMN isolated from healthy donors; test: LOX-1 expression in PMN treated with cytokines or tumor-cell conditioned medium; type: cell-based, human; conditions: healthy donor PMN, 24 hr culture, GM-CSF added; TCM 20% v/v
Procedure: FIGS. 11A and 11B show the mechanism regulating LOX-1 expression on PMN-MDSC, specifically the percentage of LOX-1+ PMN (FIG. 11A) and expression of LOX-1 (FIG. 11B) in PMN isolated from 4 healthy donors and treated with indicated cytokines. Range of concentrations based on reported data were tested and only one for each cytokine is shown. Conditioned medium from PCI30 tumor cells (TCM) was used at 20% v/v concentration. Mean and SD are shown.
What could induce LOX-1 up-regulation in PMN-MDSC? Based on the fact that in endothelial cells LOX-1 can be induced by pro-inflammatory cytokines^35, we tested the effect of several cytokines as well as tumor-cell conditioned medium (TCM) on LOX-1 expression in PMN isolated from healthy donors. None of the tested pro-inflammatory cytokines (IL-1β, TNFα, IL-6) or TCM induced upregulation of LOX-1 in PMN after 24 hr culture (GM-CSF was added to protect PMN viability) (FIGS. 11A and 11B).

hepatic L02 cells = conditions: cited from earlier work

## O[C@H](CS)[C@H](O)CS (racemic) [DTT, dithiothreitol]
[1]
  LOX-1 expression in PMN: dramatic up-regulation of LOX-1 expression

## CC(=O)N[C@@H](CS)C(=O)O [NAC, N-acetylcysteine]
T lymphocytes [2]
  effect on LOX-expression in PMN / immune suppressive activity of LOX-1+ PMN-MDSC: substantially decreased LOX-expression

## N=C(NO)NCC[C@H](N)C(=O)O [Nor-NOHA, Nω-hydroxy-norarginine]
T lymphocytes [2]
  effect on LOX-expression in PMN / immune suppressive activity of LOX-1+ PMN-MDSC: substantially decreased LOX-expression

## C/C=C(/C)C(=O)O[C@H]1C(C)=C2[C@H]([C@@H]1OC(=O)CCCCCCC)[C@@](C)(OC(C)=O)C[C@H](OC(=O)CCC)[C@@]1(O)[C@H]2OC(=O)[C@@]1(C)O [THG, thapsigargin]
[1]
  LOX-1 expression in PMN: dramatic up-regulation of LOX-1 expression
T lymphocytes [3]
  immune suppressive activity of treated PMN (T-cell proliferation): caused acquisition of potent immune suppressive activity; also recorded: converted PMN to PMN-MDSC

## IL-1β: pro-inflammatory cytokine
[4]
  upregulation of LOX-1 in PMN: None

## IL-6: pro-inflammatory cytokine
[4]
  upregulation of LOX-1 in PMN: None

## TNFα
[4]
  upregulation of LOX-1 in PMN: None

## catalase
T lymphocytes [2]
  effect on LOX-expression in PMN / immune suppressive activity of LOX-1+ PMN-MDSC: substantially decreased LOX-expression

## tunicamycin
Hepatic L02 cells
  LOX-1 expression under ER stress: caused down-regulation of LOX-1
